Data reported in US20240293413A1, “COMPOUND AND METHOD FOR TREATING CHEMOTHERAPY-RELATED GASTROINTESTINAL SIDE EFFECTS” (ONQUALITY PHARMACEUTICALS CHINA LTD., priority 2021, published 2024).

What was measured:
[1] = test system: Chemotherapeutic agent-caused diarrhea models of Balb/c mice; experiment: Examples 1-229 (Table 3): oral CDK inhibitor, relief of diarrhea caused by a chemotherapeutic agent; assay type: in vivo;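 also: percent of treated mice whose diarrhea grade fell below chemotherapy-group average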
[2] = test system: diarrhea caused by a chemotherapeutic agent in Balb/c mice; experiment: Examples 382-405 (Table 7): various administration modes of the CDK inhibitor, relief of diarrhea caused by a chemotherapeutic agent; assay type: in vivo; conditions: for Relative remission rate of oral administration: CDK inhibitor oral 150 mg/kg single
Description: Balb/c mice were fed for 1 week, and then divided into groups. The experiment was divided into a control group, a chemotherapeutic agent group, CDK inhibitor groups (including an oral administration group of a CDK inhibitor, an intraperitoneal injection group of a CDK inhibitor, an intramuscular injection group of a CDK inhibitor, a local administration group of a CDK inhibitor), each of which comprised 10 mice, to perform the administration experiment, for which the administration dosage, mode, time and frequency were shown in Table 7. The control group: being administered with the same solvent as that used in the CDK inhibitor group (the time and mode were shown in Table 7), and then being injected/intragastrically administered with the same solvent as that used in the chemotherapeutic agent group (the administration mode was shown in Table 7): the chemotherapeutic agent group: being administered with the same solvent as that used in the CDK inhibitor group (the time and mode were shown in Table 7), and then being injected/intragastrically administered with the chemotherapeutic agent (the type, administration mode and dosage were shown in Table 7): the oral administration group of the CDK inhibitor: being intragastrically administered with the CDK inhibitor (the time was shown in Table 7), and then being administered with the chemotherapeutic agent (the mode and dosage were shown in Table 7): the intraperitoneal injection group of the CDK inhibitor: being intraperitoneally injected with the CDK inhibitor (the time was shown in Table 7), and then being administered with the chemotherapeutic agent (the mode and dosage were shown in Table 7): the intramuscular injection group of the CDK inhibitor: being intramuscularly injected with the CDK inhibitor (the time was shown in Table 7), and then being administered with the chemotherapeutic agent (the mode and dosage were shown in Table 7); and the local administration group of the CDK inhibitor: the hair on the abdomen of mice was shaved (about 2 cm*2 cm), being applied with the CDK inhibitor (the time was shown in Table 7), and then being administered with the chemotherapeutic agent (the mode and dosage were shown in Table 7).
The diarrhea grading of mice was observed and recorded every day.

CCN1CCN(Cc2ccc(Nc3ncc(F)c(-c4cc(F)c5nc(C)n(C(C)C)c5c4)n3)nc2)CC1 [Abemaciclib]
40%: Relative remission rate (%) ([1]; Example 48, Fluorouracil (5-Fu) intramuscular injection 125 mg/kg single, CDK inhibitor oral 150 mg/kg single 8 h before, cycle 10 days) | Relative remission rate (%) ([1]; Example 91, Irinotecan (CPT-11) intraperitoneal injection 240 mg/kg single, CDK inhibitor oral 150 mg/kg single 2 h before, cycle 7 days) | Relative remission rate (%) ([1]; Example 100, Irinotecan (CPT-11) intraperitoneal injection 240 mg/kg single, CDK inhibitor oral 25 mg/kg single 10 h before, cycle 7 days) | Relative remission rate (%) ([1]; Example 109, Irinotecan (CPT-11) intraperitoneal injection 240 mg/kg single, CDK inhibitor oral 100 mg/kg single 20 h before, cycle 7 days) | Relative remission rate (%) ([1]; Example 110, Irinotecan (CPT-11) intraperitoneal injection 240 mg/kg single, CDK inhibitor oral 100 mg/kg single 22 h before, cycle 7 days) | Relative remission rate (%) ([1]; Example 111, Irinotecan (CPT-11) intraperitoneal injection 240 mg/kg single, CDK inhibitor oral 100 mg/kg single 24 h before, cycle 7 days) | Relative remission rate (%) ([1]; Example 226, Topotecan intraperitoneal injection 10 mg/kg single, CDK inhibitor oral 150 mg/kg single, 6 h before, 14 days) | Relative remission rate of oral administration ([2]; Example 396, Gemcitabine (GEM) intraperitoneal injection 120 mg/kg single, 0.5 h before, cycle 8 days) | Relative remission rate of oral administration ([2]; Example 400, Gemcitabine (GEM) intraperitoneal injection 120 mg/kg single, 24 h before, cycle 8 days)
20%: Relative remission rate (%) ([1]; Example 99, Irinotecan (CPT-11) intraperitoneal injection 240 mg/kg single, CDK inhibitor oral 12.5 mg/kg single 10 h before, cycle 7 days) | Relative remission rate of other administration mode ([2]; Example 394, Carboplatin (CBP) intravenous injection 120 mg/kg single, CDK inhibitor intramuscular injection 150 mg/kg single, 8 h before, cycle 10 days) | Relative remission rate of other administration mode ([2]; Example 397, Gemcitabine (GEM) intraperitoneal injection 120 mg/kg single, CDK inhibitor intraperitoneal injection 150 mg/kg single, 4 h before, cycle 8 days)
10%: Relative remission rate of other administration mode ([2]; Example 396, Gemcitabine (GEM) intraperitoneal injection 120 mg/kg single, CDK inhibitor intraperitoneal injection 150 mg/kg single, 0.5 h before, cycle 8 days) | Relative remission rate of other administration mode ([2]; Example 400, Gemcitabine (GEM) intraperitoneal injection 120 mg/kg single, CDK inhibitor intraperitoneal injection 150 mg/kg single, 24 h before, cycle 8 days)
70%: Relative remission rate (%) ([1]; Example 97, Irinotecan (CPT-11) intraperitoneal injection 240 mg/kg single, CDK inhibitor oral 150 mg/kg single 8 h before, cycle 7 days) | Relative remission rate (%) ([1]; Example 103, Irinotecan (CPT-11) intraperitoneal injection 240 mg/kg single, CDK inhibitor oral 150 mg/kg single 10 h before, cycle 7 days) | Relative remission rate (%) ([1]; Example 107, Irinotecan (CPT-11) intraperitoneal injection 240 mg/kg single, CDK inhibitor oral 100 mg/kg single 16 h before, cycle 7 days) | Relative remission rate (%) ([1]; Example 108, Irinotecan (CPT-11) intraperitoneal injection 240 mg/kg single, CDK inhibitor oral 100 mg/kg single 18 h before, cycle 7 days)
0%: Relative remission rate (%) ([1]; Example 112, Irinotecan (CPT-11) intraperitoneal injection 240 mg/kg single, CDK inhibitor oral 100 mg/kg single 48 h before, cycle 7 days)
60%: Relative remission rate (%) ([1]; Example 94, Irinotecan (CPT-11) intraperitoneal injection 240 mg/kg single, CDK inhibitor oral 150 mg/kg single 5 h before, cycle 7 days) | Relative remission rate (%) ([1]; Example 95, Irinotecan (CPT-11) intraperitoneal injection 240 mg/kg single, CDK inhibitor oral 150 mg/kg single 6 h before, cycle 7 days) | Relative remission rate (%) ([1]; Example 96, Irinotecan (CPT-11) intraperitoneal injection 240 mg/kg single, CDK inhibitor oral 150 mg/kg single 7 h before, cycle 7 days) | Relative remission rate of oral administration ([2]; Example 394, Carboplatin (CBP) intravenous injection 120 mg/kg single, 8 h before, cycle 10 days) | Relative remission rate of oral administration ([2]; Example 398, Gemcitabine (GEM) intraperitoneal injection 120 mg/kg single, 8 h before, cycle 8 days) | Relative remission rate of oral administration ([2]; Example 399, Gemcitabine (GEM) intraperitoneal injection 120 mg/kg single, 12 h before, cycle 8 days)
80%: Relative remission rate (%) ([1]; Example 101, Irinotecan (CPT-11) intraperitoneal injection 240 mg/kg single, CDK inhibitor oral 50 mg/kg single 10 h before, cycle 7 days) | Relative remission rate (%) ([1]; Example 104, Irinotecan (CPT-11) intraperitoneal injection 240 mg/kg single, CDK inhibitor oral 100 mg/kg single 11 h before, cycle 7 days) | Relative remission rate (%) ([1]; Example 105, Irinotecan (CPT-11) intraperitoneal injection 240 mg/kg single, CDK inhibitor oral 100 mg/kg single 12 h before, cycle 7 days)
30%: Relative remission rate (%) ([1]; Example 89, Irinotecan (CPT-11) intraperitoneal injection 240 mg/kg single, CDK inhibitor oral 150 mg/kg single 0.5 h before, cycle 7 days) | Relative remission rate (%) ([1]; Example 90, Irinotecan (CPT-11) intraperitoneal injection 240 mg/kg single, CDK inhibitor oral 150 mg/kg single 1 h before, cycle 7 days) | Relative remission rate (%) ([1]; Example 92, Irinotecan (CPT-11) intraperitoneal injection 240 mg/kg single, CDK inhibitor oral 150 mg/kg single 3 h before, cycle 7 days) | Relative remission rate of other administration mode ([2]; Example 398, Gemcitabine (GEM) intraperitoneal injection 120 mg/kg single, CDK inhibitor intraperitoneal injection 150 mg/kg single, 8 h before, cycle 8 days) | Relative remission rate of other administration mode ([2]; Example 399, Gemcitabine (GEM) intraperitoneal injection 120 mg/kg single, CDK inhibitor intraperitoneal injection 150 mg/kg single, 12 h before, cycle 8 days)
90%: Relative remission rate (%) ([1]; Example 106, Irinotecan (CPT-11) intraperitoneal injection 240 mg/kg single, CDK inhibitor oral 100 mg/kg single 14 h before, cycle 7 days)
50%: Relative remission rate (%) ([1]; Example 93, Irinotecan (CPT-11) intraperitoneal injection 240 mg/kg single, CDK inhibitor oral 150 mg/kg single 4 h before, cycle 7 days) | Relative remission rate (%) ([1]; Example 98, Irinotecan (CPT-11) intraperitoneal injection 240 mg/kg single, CDK inhibitor oral 150 mg/kg single 9 h before, cycle 7 days) | Relative remission rate (%) ([1]; Example 102, Irinotecan (CPT-11) intraperitoneal injection 240 mg/kg single, CDK inhibitor oral 100 mg/kg single 10 h before, cycle 7 days) | Relative remission rate of oral administration ([2]; Example 397, Gemcitabine (GEM) intraperitoneal injection 120 mg/kg single, 4 h before, cycle 8 days)
